{
  "source": "patent US20140378374A1",
  "about": "“METHODS OF TREATMENT” (GlaxoSmithKline Intellectual Property (No.2) Limited, priority 2013, published 2014)",
  "key": {"patients with T2D and RI": {"test_system": "patients with T2D and RI", "format": "in vivo, human", "conditions": "for Model-adjusted change from baseline A1C, LS mean (SE): ANCOVA", "protocol": "Therapies for type 2 diabetes mellitus (T2DM) with renal impairment (RI) are limited and may require dose adjustment. This 52-week randomized, double blind, active controlled, Phase III parallel group study examined efficacy/safety of QW Albi injections (30 mg uptitrated to 50 mg if needed) vs daily Sita in patients with T2D and RI (eGFR≧15 and <90 mL/min/1.73 m^2) and A1C 7-10% on lifestyle (11% of subjects) or metformin (Met), thiazoldinedone (TZD), sulfonylureas (SU), or any combination (89% of patients). […] Primary endpoint was A1C change at week 26 for Albi vs Sita (noninferiority with subsequent superiority analysis). Eligible subjects were men or non pregnant, nonlactating women, 18 years of age or older, with a historical diagnosis of T2DM who were experiencing inadequate glycemic control on their current regimen of diet and exercise or their antidiabetic therapy of metformin, TZD, SU, or any combination of these OAD medications."}, "[1]": {"conditions": "each group with CKD (mild, moderate, severe); cited from earlier work"}, "[2]": {"test_system": "patients with type 2 diabetes", "conditions": "head-to-head trial; cited from earlier work"}, "[3]": {"conditions": "Week 26, Moderate RI (eGFR 30-59)"}, "[4]": {"conditions": "Week 26, Severe RI (eGFR 15-29)"}},
  "note": "Read-outs that look alike come from different tables or passages of the source.",
  "data": [
    {"smiles": "N[C@@H](CC(=O)N1CCn2c(nnc2C(F)(F)F)C1)Cc1cc(F)c(F)cc1F", "note": "[Sitagliptin, sitagliptin, reference compound]", "values": [
      {"measurement": "Week 26 A1C, mean", "setting": "patients with T2D and RI; Any RI (eGFR 15-89)", "value": 7.68, "unit": "%"},
      {"measurement": "Week 26 A1C, mean", "setting": "patients with T2D and RI; Mild RI (eGFR 60-89 mL/min/1.73 m2)", "value": 7.50, "unit": "%"},
      {"measurement": "Week 26 A1C, mean", "setting": "patients with T2D and RI; Moderate RI (eGFR 30-59)", "value": 7.91, "unit": "%"},
      {"measurement": "Week 26 A1C, mean", "setting": "patients with T2D and RI; Severe RI (eGFR 15-29)", "value": 7.67, "unit": "%"},
      {"measurement": "A1C<7% achieved, patients", "setting": "patients with T2D and RI; Week 26", "value": 30.5, "unit": "%"},
      {"measurement": "FPG change", "setting": "patients with T2D and RI; Week 26", "value": -3.9, "unit": "mg/dL"},
      {"measurement": "weight change", "setting": "patients with T2D and RI; Week 26", "value": -0.2, "unit": "kg"},
      {"measurement": "Model-adjusted change from baseline A1C, LS mean (SE)", "setting": "patients with T2D and RI; Week 26, Any RI (eGFR 15-89)", "value": "−0.52", "unit": "%"},
      {"measurement": "Model-adjusted change from baseline A1C, LS mean (SE)", "setting": "patients with T2D and RI; Week 26, Mild RI (eGFR 60-89)", "value": "−0.67", "unit": "%"},
      {"measurement": "Model-adjusted change from baseline A1C, LS mean (SE)", "setting": "patients with T2D and RI; [3]", "value": "−0.31", "unit": "%"},
      {"measurement": "Model-adjusted change from baseline A1C, LS mean (SE)", "setting": "patients with T2D and RI; [4]", "value": "−0.61", "unit": "%"},
      {"measurement": "Change from baseline A1C, mean (SD)", "setting": "patients with T2D and RI; Week 26, Any RI (eGFR 15-89)", "value": "−0.54", "unit": "%"},
      {"measurement": "Change from baseline A1C, mean (SD)", "setting": "patients with T2D and RI; Week 26, Mild RI (eGFR 60-89)", "value": "−0.66", "unit": "%"},
      {"measurement": "Change from baseline A1C, mean (SD)", "setting": "patients with T2D and RI; [3]", "value": "−0.37", "unit": "%"},
      {"measurement": "Change from baseline A1C, mean (SD)", "setting": "patients with T2D and RI; [4]", "value": "−0.65", "unit": "%"},
      {"measurement": "Adverse Event rate: diarrhea", "setting": "patients with T2D and RI; both, human, in vivo, 26 weeks", "value": 6.1, "unit": "%"},
      {"measurement": "Adverse Event rate: nausea", "setting": "patients with T2D and RI; both, human, in vivo, 26 weeks", "value": 2.8, "unit": "%"},
      {"measurement": "Adverse Event rate: vomiting", "setting": "patients with T2D and RI; both, human, in vivo, 26 weeks", "value": 0.8, "unit": "%"},
      {"measurement": "Hypoglycemia rate", "setting": "patients with T2D and RI; both, human, in vivo, 26 weeks", "value": 13.4, "unit": "%"},
      {"measurement": "Hypoglycemia, severe (number)", "setting": "patients with T2D and RI; both, human, in vivo, 26 weeks", "value": 2},
      {"measurement": "Injection site reaction rate", "setting": "patients with T2D and RI; both, human, in vivo, 26 weeks", "value": 2.8, "unit": "%"},
      {"measurement": "On-therapy adverse event: Constipation", "setting": "patients with T2D and RI; both, human, in vivo, 26 weeks", "value": "5 (2.0) n (%)"},
      {"measurement": "On-therapy adverse event: Diarrhea", "setting": "patients with T2D and RI; both, human, in vivo, 26 weeks", "value": "15 (6.1) n (%)"},
      {"measurement": "On-therapy adverse event: Hypertension", "setting": "patients with T2D and RI; both, human, in vivo, 26 weeks", "value": "15 (6.1) n (%)"},
      {"measurement": "On-therapy adverse event: Nasopharyngitis", "setting": "patients with T2D and RI; both, human, in vivo, 26 weeks", "value": "16 (6.5) n (%)"},
      {"measurement": "On-therapy adverse event: Upper respiratory tract infection", "setting": "patients with T2D and RI; both, human, in vivo, 26 weeks", "value": "16 (6.5) n (%)"},
      {"measurement": "On-therapy adverse event: Urinary tract infection", "setting": "patients with T2D and RI; both, human, in vivo, 26 weeks", "value": "15 (6.1) n (%)"}
    ]},
    {"smiles": "CCCCCCCCCCCCCCCC(=O)N[C@@H](CCC(=O)NCCCC[C@H](NC(=O)[C@H](C)NC(=O)[C@H](C)NC(=O)[C@H](CCC(N)=O)NC(=O)CNC(=O)[C@H](CCC(=O)O)NC(=O)[C@H](CC(C)C)NC(=O)[C@H](Cc1ccc(O)cc1)NC(=O)[C@H](CO)NC(=O)[C@H](CO)NC(=O)[C@@H](NC(=O)[C@H](CC(=O)O)NC(=O)[C@H](CO)NC(=O)[C@@H](NC(=O)[C@H](Cc1ccccc1)NC(=O)[C@@H](NC(=O)CNC(=O)[C@H](CCC(=O)O)NC(=O)[C@H](C)NC(=O)[C@@H](N)Cc1cnc[nH]1)[C@@H](C)O)[C@@H](C)O)C(C)C)C(=O)N[C@@H](CCC(=O)O)C(=O)N[C@@H](Cc1ccccc1)C(=O)N[C@H](C(=O)N[C@@H](C)C(=O)N[C@@H](Cc1c[nH]c2ccccc12)C(=O)N[C@@H](CC(C)C)C(=O)N[C@H](C(=O)N[C@@H](CCCNC(=N)N)C(=O)NCC(=O)N[C@@H](CCCNC(=N)N)C(=O)NCC(=O)O)C(C)C)[C@@H](C)CC)C(=O)O", "note": "[liraglutide, reference compound]", "values": [
      {"measurement": "exposure vs group with normal renal function", "setting": "[1]", "value": "reduced exposure"},
      {"measurement": "nausea, percentage", "setting": "[2]", "value": 29, "unit": "%"},
      {"measurement": "vomiting, percentage", "setting": "[2]", "value": 9, "unit": "%"}
    ]}
  ]
}
